We go through eleven molecules from patent US4740505A, “Pyridazinyloxy (or thio) phenyl phosphates” (priority 1985, dated 1988).

Data set [1] in a line: Toxicological test: oral acute toxicity in mice. The arrangement: species or system mice (ddY-SLC strained male). The note with it: mouse, in vivo, five-week aged ddY-SLC male mice.
In data set [2] the test system is Tetranychus urticae. Put plainly: Effectiveness on Tetranychus urticae (rating of effects on kidney bean seedlings). The note with it: 500 ppm, 20 ml, rating based on percent decrease; for Rating of effect Day-2: 2nd day after treatment; for Rating of effect Day-7: 7th day after treatment. It counts as in vivo. The method, then: Effectiveness on Tetranychus urticae
Each of the compounds listed in the following table is processed into an emulsifiable concentrate in accordance with the formulation of Example 6. The emulsifiable concentrate is diluted with water (Dyne®, a spreading agent produced by Takeda Chemical Ind. Ltd., as diluted 3,000-fold) to prepare a 500 ppm aqueous solution. Ten female adult of Tetranychus urticae are put into each kidney been seedling raised in a jiffy pot (6 cm in diameter), and left in a glass house at 28° C. for 24 hours. Each pot is taken out of the glass house; 20 ml of the aqueous solution as prepared above is spread over each kidney bean seedling. The jiffy pots are laid in the glass house again. Larvae and adult which are alive on the leaves are counted at the 2nd and 7th days after the spreading treatment. The test is repeated two times. The degrees are determined on the basis of percent decrease.

Data set [3] deals with Spodoptera litura. Put plainly: Effectiveness on Spodoptera litura (mortality of 3rd instar larvae on sprayed soybean leaves). It counts as in vivo. The method, then:
Effectiveness of Spondoptera litura
Each of the test compounds listed in the following table is processed into an emulsifiable concentrate in accordance with the formulation of Example 6. The emulsifiable concentrate is diluted with water (Dyne®, a spreading agent produced by Takeda Chemical Ind. Ltd., as diluted 3,000-fold) to prepare a 100 ppm aqueous solution.
Using a spray gun (nozzle pressure of 1 kg/cm^2 gauge), 20 ml of the aqueous 100 ppm solution is sprayed over soybean seedlings in a spraying chamber (on 10th day after germination) which have been raised in jiffy pots (6 cm in diameter). Two main leaves are respectively cut off from the seedlings 2 hours and 6 days after the spraying. Each of the leaves is put into an ice cream cup (diameter: 6 cm, depth: 4 cm), and 10 larvae of Spodoptera litura at the 3rd instar are put into each of the cups. The cups are left in a room at 25° C.; after 48 hours, dead larvae are counted. The test is repeated two times. The results are shown in terms of mortality (%) in Table 6. [formula]
The following compounds are used for controls.
The same compounds are used for controls also in the following Test Examples.

Where [4] appears, read: 100 ppm spray, leaves cut 6 days after spraying, dead larvae counted after 48 hours, 25° C., read-out: Mortality 6th day after spraying.
Where [5] appears, read: 48 h, read-out: Mortality 2 hours after spraying.

Read-outs that look alike come from different tables or passages of the source.

In general, LD50 refers to the dose expected to kill half of the subjects tested. Read a low LD50 as greater toxicity. What is called mortality is the percentage killed. As to `CCCSP(=S)(OCC)Oc1ccccc1Oc1ccc(OC)nn1` (stereo not shown) [Compound No. 40], the LD50 in data set [1] was greater than 300 mg/kg. Moreover, in data set [2], the “Rating of effect Day-2” value is 3 (≥90). In addition, in data set [2], the “Rating of effect Day-7” value is on record as 3 (≥90). The mortality at 100 ppm in data set [3] (setting [4]) and in data set [3] (setting [5]) was 100% throughout.
Consider `CCCSP(=S)(OCC)Oc1ccc(Oc2ccc(Cl)nn2)c(C)c1` (stereo not shown) [compound 16], for which the LD50 in data set [1] was greater than 300 mg/kg. In addition, the “Rating of effect Day-2” value in data set [2] is on record as 3 (≥90). In addition, the “Rating of effect Day-7” value in data set [2] is reported as 3 (≥90). For the same molecule, the mortality at 100 ppm in data set [3] (setting [4]) and in data set [3] (setting [5]) was 100% throughout.
The molecule `CCCSP(=O)(OCC)Oc1cccc(Oc2ccc(Cl)nn2)c1` (stereo not shown) [compound 18] showed an LD50 in data set [1] greater than 300 mg/kg. In data set [2], the “Rating of effect Day-2” value is reported as 3 (≥90) and the “Rating of effect Day-7” value is listed as 3 (≥90). Further, in data set [3] (setting [4]), the mortality at 100 ppm was 100%. For the same molecule, the mortality at 100 ppm in data set [3] (setting [5]) amounted to 100%.
`CCCSP(=O)(OCC)Oc1cccc(Sc2ccc(Cl)nn2)c1` (stereo not shown) [compound 19] displayed an LD50 in data set [1] greater than 300 mg/kg. For the same molecule, in data set [2], the “Rating of effect Day-2” value was 3 (≥90) and the “Rating of effect Day-7” value was 3 (≥90). Moreover, in data set [3] (setting [4]), the mortality at 100 ppm was found to be 90%. Besides, the mortality at 100 ppm in data set [3] (setting [5]) is 100%.
In the case of `CCCSP(=S)(OCC)Oc1cccc(Sc2ccc(Cl)nn2)c1` (stereo not shown) [compound 20], in data set [1], the LD50 was greater than 300 mg/kg. In addition, the “Rating of effect Day-2” value in data set [2] was 3 (≥90). The “Rating of effect Day-7” value in data set [2] was 3 (≥90). Also, the mortality at 100 ppm in data set [3] (setting [4]) was determined as 90%; in data set [3] (setting [5]) it was 100%.
`CCCSP(=O)(OCC)Oc1ccccc1Oc1ccc(Br)nn1` (stereo not shown) [compound 24] yielded an LD50 in data set [1] of roughly 300 mg/kg. For the same molecule, in data set [2], the “Rating of effect Day-2” value was 3 (≥90) and the “Rating of effect Day-7” value is on record as 3 (≥90). Also, the mortality at 100 ppm in data set [3] (setting [4]) is 100%. Besides, the mortality at 100 ppm in data set [3] (setting [5]) was found to be 100%.
In data set [1], `CCCSP(=S)(OCC)Oc1ccccc1Oc1ccc(Br)nn1` (stereo not shown) [compound 25] had an LD50 greater than 300 mg/kg. For the same molecule, in data set [2], the “Rating of effect Day-2” value is 3 (≥90) and the “Rating of effect Day-7” value is on record as 3 (≥90). In addition, the mortality at 100 ppm in data set [3] (setting [4]) was 100%. Besides, the mortality at 100 ppm in data set [3] (setting [5]) amounted to 100%.
On to `CCCSP(=O)(OCC)Oc1ccccc1Sc1ccc(Br)nn1` (stereo not shown) [compound 26], for which the median lethal dose (LD50) in data set [1] was roughly 300 mg/kg. Further, in data set [2], the “Rating of effect Day-2” value is 3 (≥90). Further, the “Rating of effect Day-7” value in data set [2] is 3 (≥90). For the same molecule, the mortality at 100 ppm in data set [3] (setting [4]) was found to be 95%; in data set [3] (setting [5]), 100%.
Regarding `CCCSP(=S)(OCC)Oc1ccccc1Oc1ccc(C)nn1` (stereo not shown) [compound 38], in data set [1], the LD50 was greater than 300 mg/kg. Further, in data set [2], the “Rating of effect Day-2” value is on record as 3 (≥90) and the “Rating of effect Day-7” value is recorded as 3 (≥90). Further, in data set [3] (setting [4]), the mortality at 100 ppm was 100%. Moreover, the mortality at 100 ppm in data set [3] (setting [5]) turned out to be 100%.
In the case of `CCCSP(=O)(OCC)Oc1ccccc1Oc1ccc(SCC)nn1` (stereo not shown) [compound 41], in data set [1], the LD50 was roughly 300 mg/kg. In data set [2], the “Rating of effect Day-2” value is listed as 3 (≥90) and the “Rating of effect Day-7” value is 3 (≥90). Further, the mortality at 100 ppm in data set [3] (setting [4]) worked out at 100%. The mortality at 100 ppm in data set [3] (setting [5]) was determined as 100%.
For the molecule `CCCSP(=S)(OCC)Oc1ccccc1Oc1ccc(SCC)nn1` (stereo not shown) [compound 42], the LD50 in data set [1] is greater than 300 mg/kg. Besides, in data set [2], the “Rating of effect Day-2” value is 3 (≥90) and the “Rating of effect Day-7” value was 3 (≥90). The mortality at 100 ppm in data set [3] (setting [4]) amounted to 100%. For the same molecule, the mortality at 100 ppm in data set [3] (setting [5]) was 100%.
